According to US8658618B2, “Methods for preventing or reducing neurotoxicity associated with administering DPD inhibitors in combination with 5-FU and 5-FU prodrugs” (Adherex Technologies, Inc., priority 2009, dated 2014):
Like-named read-outs stand apart in the source and are kept apart here.

How the values were obtained:
[1] = system: tumor; conditions: tumor-bearing rats and tissue culture; cited from earlier work
[2] = system: mice, monkeys, cats, and dogs; conditions: in vivo; cited from earlier work
[3] = system: tumors; conditions: eniluracil with 5-FU, laboratory animals bearing tumors; cited from earlier work
[4] = biological target: T1, DPD (Homo sapiens, UniProt Q12882); conditions: eniluracil 0.74 mg/m^2 (about 1 mg total), for prolonged periods; cited from earlier work
T1 construct: eliminated greater than 90% of DPD in peripheral blood cells for prolonged periods; from tissue; host or cells: peripheral blood cells of cancer patients
T1 sequence (Q12882 4-1025): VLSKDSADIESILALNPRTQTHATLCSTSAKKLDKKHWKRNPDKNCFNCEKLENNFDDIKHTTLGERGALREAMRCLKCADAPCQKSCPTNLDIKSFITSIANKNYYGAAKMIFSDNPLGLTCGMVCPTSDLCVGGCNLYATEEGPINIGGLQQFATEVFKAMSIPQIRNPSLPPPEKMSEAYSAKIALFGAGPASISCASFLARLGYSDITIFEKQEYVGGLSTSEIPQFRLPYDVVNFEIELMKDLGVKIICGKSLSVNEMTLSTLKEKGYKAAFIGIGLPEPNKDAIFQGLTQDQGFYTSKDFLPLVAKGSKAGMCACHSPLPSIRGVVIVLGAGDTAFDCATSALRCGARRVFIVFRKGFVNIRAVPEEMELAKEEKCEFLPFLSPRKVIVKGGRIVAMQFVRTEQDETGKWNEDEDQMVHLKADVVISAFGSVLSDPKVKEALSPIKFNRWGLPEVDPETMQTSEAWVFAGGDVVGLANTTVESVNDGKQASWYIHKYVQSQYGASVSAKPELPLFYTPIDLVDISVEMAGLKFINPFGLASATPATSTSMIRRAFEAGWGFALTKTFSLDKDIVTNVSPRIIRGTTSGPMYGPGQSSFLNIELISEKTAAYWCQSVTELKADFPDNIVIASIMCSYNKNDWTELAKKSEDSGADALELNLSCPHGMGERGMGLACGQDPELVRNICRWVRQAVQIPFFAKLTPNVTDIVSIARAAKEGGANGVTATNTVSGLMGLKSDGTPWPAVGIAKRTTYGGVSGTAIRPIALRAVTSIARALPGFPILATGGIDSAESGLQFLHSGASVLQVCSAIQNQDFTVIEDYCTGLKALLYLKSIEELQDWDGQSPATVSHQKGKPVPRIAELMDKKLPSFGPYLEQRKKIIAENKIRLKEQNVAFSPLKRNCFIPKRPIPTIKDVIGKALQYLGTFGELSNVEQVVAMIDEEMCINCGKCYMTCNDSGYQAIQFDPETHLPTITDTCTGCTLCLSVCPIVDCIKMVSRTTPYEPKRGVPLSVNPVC

[5] = system: patients; conditions: 20 mg eniluracil before 5-FU; 17 patients; cited from earlier work
[6] = system: cancer patients; conditions: cited from earlier work
[7] = Calculated amount of eniluracil remaining in the body after 10.5 hours; set-up: species or system human; conditions: approximately three elimination half-lives
Description: The amounts of eniluracil shown in Table 1 below may be used achieve doses in the 16-20 mg/m^2 range. The calculated amount of eniluracil remaining in the body after 10.5 hours (approximately three elimination half-lives) is also presented. Thus, if the weekly and the 5-day dosing schedules employ doses of 5-FU ranging between about 15-50 mg/m^2, the ratio of eniluracil to 5-FU will always be less than about 1:6 when 5-FU is administered. For example, when the commonly used 25 mg/m^2 dose of 5-FU is administered 10.5 hours after eniluracil, the ratio of eniluracil to 5-FU will be about 1:10 or less.

[8] = system: tumor; conditions: excess eniluracil present at the time 5-FU is administered; cited from earlier work
[9] = system: dogs; conditions: cited from earlier work
[10] = biological target: T2, DPD (Rattus norvegicus, UniProt O89000); conditions: rats; spleen, intestinal mucosa, lung; cited from earlier work
T2 construct: from tissue; host or cells: rat brain, liver, spleen, intestinal mucosa, lung (in vivo dosing)
T2 sequence (O89000 1-1025): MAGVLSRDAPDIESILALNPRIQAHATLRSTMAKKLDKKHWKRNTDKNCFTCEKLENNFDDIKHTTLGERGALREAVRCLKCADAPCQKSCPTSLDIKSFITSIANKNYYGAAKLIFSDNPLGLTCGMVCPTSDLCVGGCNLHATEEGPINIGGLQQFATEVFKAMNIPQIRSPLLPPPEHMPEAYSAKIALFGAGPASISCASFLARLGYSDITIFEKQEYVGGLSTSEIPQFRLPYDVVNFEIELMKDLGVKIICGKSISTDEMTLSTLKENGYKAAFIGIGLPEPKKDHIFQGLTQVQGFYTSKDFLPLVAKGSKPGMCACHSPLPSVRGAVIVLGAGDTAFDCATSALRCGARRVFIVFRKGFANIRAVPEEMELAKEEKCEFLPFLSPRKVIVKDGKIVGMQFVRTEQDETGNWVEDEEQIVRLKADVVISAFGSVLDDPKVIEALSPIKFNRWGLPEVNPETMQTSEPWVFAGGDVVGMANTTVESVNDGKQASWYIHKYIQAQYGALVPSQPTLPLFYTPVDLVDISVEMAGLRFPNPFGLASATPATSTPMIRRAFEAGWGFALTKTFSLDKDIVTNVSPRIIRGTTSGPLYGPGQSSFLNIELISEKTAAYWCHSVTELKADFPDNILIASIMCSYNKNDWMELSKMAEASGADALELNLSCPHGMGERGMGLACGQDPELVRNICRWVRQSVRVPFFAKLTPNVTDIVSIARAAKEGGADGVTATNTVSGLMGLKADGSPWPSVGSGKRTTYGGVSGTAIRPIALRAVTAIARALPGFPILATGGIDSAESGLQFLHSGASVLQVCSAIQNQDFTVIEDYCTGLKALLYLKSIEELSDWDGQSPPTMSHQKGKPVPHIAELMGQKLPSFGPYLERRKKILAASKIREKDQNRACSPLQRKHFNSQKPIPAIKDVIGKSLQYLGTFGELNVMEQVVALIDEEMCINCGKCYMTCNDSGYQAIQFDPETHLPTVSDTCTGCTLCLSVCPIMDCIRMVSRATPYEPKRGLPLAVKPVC

[11] = system: cancer patients; test: Clinical trial: 5 mg eniluracil followed 12-24 hours later by 5-FU, neurotoxicity; assay type: in vivo, human; conditions: then 30-160 mg 5-FU 12-24 hours later, 41 patients
Description: Therefore, a clinical trial was initiated wherein cancer patients were administered a 5 mg dose of eniluracil followed by 5-FU at a 30-160 mg dose 12-24 hours later. Unexpectedly, the majority of the 41 patients undergoing this treatment experienced some form of mild to severe neurotoxicity, with the main neurological symptoms being ataxia (an unsteady gait), neuropathy, confusion, dizziness, and slurred speech.
Based on this important finding, a clinical trial was initiated wherein cancer patients were administered a 5 mg dose of eniluracil, which was believed to be sufficient to systemically eliminate DPD activity in the patients. 5-FU was then administered 12-24 hours later at a dose of 30-160 mg. Unexpectedly, however, the majority of the 41 patients undergoing this treatment experienced some form of mild to severe neurotoxicity, with the main neurological symptoms being ataxia (an unsteady gait), neuropathy, confusion, dizziness, and slurred speech.
A clinical trial was initiated based on the important mechanistic findings described in WO 2006/060697. More specifically, cancer patients were administered a 5 mg dose of eniluracil and 12-24 hours thereafter were administered a 30-160 mg dose of 5-FU. […]

[12] = biological target: T1, DPD; conditions: the two patients with neurotoxicity, 20 mg eniluracil (9.5 and 8.0 mg/m^2); cited from earlier work
[13] = humans; cited from earlier work
[14] = system: patients with colorectal cancer; conditions: cited from earlier work
[15] = cited from earlier work; for elimination half-life of 5-FU: Phase I

In the case of `Nc1nc2c(c(=O)[nH]1)N(C=O)C(CNc1ccc(C(=O)N[C@@H](CCC(=O)O)C(=O)O)cc1)CN2` (stereo partly shown) [Leucovorin], the “antitumor efficacy of eniluracil and 5-FU” value [1] is listed as “improve the antitumor efficacy”.

For `NCC(F)C(=O)O` (stereo not drawn) [F-Bal, α-fluoro-β-alanine], the neurotoxicity [2] is given as “can cause neurotoxicity”.

In the case of `C#Cc1c[nH]c(=O)[nH]c1=O` [eniluracil, 5-ethynyluracil], the “antitumor efficacy of 5-FU” value [3] is given as “significantly improved”, the “DPD eliminated in peripheral blood cells” value [4] is given as “greater than 90%” and the incidence of neurotoxicity [5] is given as 12%. For the same compound, the toxicity ([6]; Phase I clinical trials in cancer patients) was “without causing toxicity”, the safety ([6]; doses up to 50 mg per day for seven days) was “safe” and the “Estimated Amount of Eniluracil remaining 10.5 hr after dosing” value ([7]; eniluracil dose 25 mg) was 3.1 mg. For the same compound, the “Estimated Amount of Eniluracil remaining 10.5 hr after dosing” value ([7]; eniluracil dose 30 mg) was 3.8 mg, the “Estimated Amount of Eniluracil remaining 10.5 hr after dosing” value ([7]; eniluracil dose 40 mg) was 5.0 mg and the “Estimated Amount of Eniluracil remaining 10.5 hr after dosing” value ([7]; eniluracil dose 50 mg) was 6.3 mg. For the same compound, the “antitumor activity of 5-FU” value [8] was “significantly diminished”, the neurotoxicity ([9]; dogs pretreated with eniluracil, high blood levels of 5-FU) was “without any neurotoxicity” and the “dose required to inactivate 50% of DPD in brain relative to liver and other non-nervous tissues” value [10] was “approximately six-fold”. For the same compound, the “patients experiencing some form of mild to severe neurotoxicity” value [11] was “majority”, the “DPD in peripheral blood cells” value [12] was “completely inactivated” and the “elimination half-life for eniluracil” value [13] was “about 3.5 hours”. For the same compound, the “antitumor benefit versus standard regimen of 5-FU/leucovorin” value ([14]; 10 mg/m^2 eniluracil and 1 mg/m^2 5-FU every 12 hr for 28 days, North American trial) was “less antitumor benefit” and the “total incidence of severe neurotoxicity” value ([14]; eniluracil about 11.5 mg/m^2 every 12 hours) was 6%.

In the case of `O=c1[nH]cc(F)c(=O)[nH]1` [5-FU, 5-Fluorouracil], the “elimination half-life of 5-FU” value ([15]; after one dose of eniluracil) is listed as 3.5 h, the “half-life of 5-FU” value ([15]; eniluracil 3.7 mg/m^2) is listed as 4.5 to 6.5 h and the 5-FU elimination half-life ([15]; with eniluracil) is listed as 4.5 to 6.5 h. The “elimination half-life of 5-FU” value ([15]; without eniluracil) was “about 10 minutes”, the 5-FU elimination half-life ([15]; without eniluracil) was 0.167 to 0.333 h and the neurotoxicity ([9]; intravenous 5-FU alone, only low blood levels of 5-FU) was “induced seizures, muscle tremors, and ataxia”.
